Source: patent US20240261398A1 (priority 2018, published 2024)
Values joined by “and” are separate entries in the source; they are usually repeats but may differ in a detail not shown here. Equal values may be shown once.

What was measured:
MA-CA04 virus [1] = system: MA-CA04 virus; parameters: species or system mice; settings: mouse, in vivo
MA-CA04 virus [2] = system: MA-CA04 virus; parameters: species or system BALB/c mice; settings: mouse, in vivo

SMILES	Survival rate (%) (MA-CA04 virus [1])	Mean value of antibody titers (Log 10 PFU/g) ± Standard deviation, Lung, 3 days after infection (MA-CA04 virus [2])	Mean value of antibody titers (Log 10 PFU/g) ± Standard deviation, Nasal concha, 3 days after infection (MA-CA04 virus [2])	other results
C[C@@H]1O[C@@H](OC[C@H]2O[C@@H](Oc3c(-c4ccc(O)c(O)c4)oc4cc(O)cc(O)c4c3=O)[C@H](O)[C@@H](O)[C@@H]2O)[C@H](O)[C@H](O)[C@H]1O [Rutin hydrate]	75	–	–	–
COC(=O)[C@H](Cc1ccccc1)NC(=O)[C@H](CC(=O)O)NCCC(C)(C)C [Neotame]	–	7.5 ± 0.3 Log 10 PFU/g and 7.5 ± 0.2 Log 10 PFU/g	6.1 ± 0.05 Log 10 PFU/g and 6.3 ± 0.1 Log 10 PFU/g	virus titers in the nasal concha and the lung, six days after the infection (MA-CA04 virus [2]): no virus titers were detected in some mice
O.O=P([O-])([O-])OCC(O)CO.[Ca+2] (stereo not shown)	75	–	–	influence on body weight (FIG. 3 A and C) (MA-CA04 virus [1]): the same level as the previously known adjuvant Poly(I:C); survival rate (FIG. 3 B and D) (MA-CA04 virus [1]): the same level as Poly(I:C) or was slightly lower than Poly(I:C)
CC(/C=C/C=C(\C)C(=O)O[C@@H]1O[C@H](CO[C@@H]2O[C@H](CO)[C@@H](O)[C@H](O)[C@H]2O)[C@@H](O)[C@H](O)[C@H]1O)=C\C=C\C=C(C)\C=C\C=C(/C)C(=O)O[C@@H]1O[C@H](CO[C@@H]2O[C@H](CO)[C@@H](O)[C@H](O)[C@H]2O)[C@@H](O)[C@H](O)[C@H]1O [Crocin]	50	–	–	–
O=C([O-])c1ccccc1.[Na+] [Sodium benzoate]	–	6.7 ± 0.2 Log 10 PFU/g and 7.0 ± 0.2 Log 10 PFU/g	6.4 ± 0.1 Log 10 PFU/g and 6.2 ± 0.04 Log 10 PFU/g	virus titers in the nasal concha and the lung, six days after the infection (MA-CA04 virus [2]): no virus titers were detected in some mice
Cc1cc2nc3c(=O)[nH]c(=O)nc-3n(C[C@H](O)[C@H](O)[C@H](O)CO)c2cc1C [Riboflavin]	25	–	–	–
O=S([O-])[O-].[Na+].[Na+] [Sodium sulfite]	–	7.0 ± 0.1 Log 10 PFU/g	6.1 ± 0.3 Log 10 PFU/g and 6.2 ± 0.2 Log 10 PFU/g	–
CC(/C=C/C=C(C)/C=C/C(=O)O)=C\C=C\C=C(C)\C=C\C=C(C)\C=C\C(=O)O (stereo in doubt) [Norbixin]	50	7.2 ± 0.3 Log 10 PFU/g and 7.4 ± 0.3 Log 10 PFU/g	–	–
